In patent US11752116B2, “Method of viral inhibition” (priority 2013, dated 2023):

How the values were obtained:
[1] = system: DENV-2; experiment: Time-of-addition DENV-2 assay in Vero cells, intracellular viral RNA by qRT-PCR; assay type: cell-based; conditions: 10 μM for 2 h, added prior to, during, or up to 24 h p.i.
Experimental: To investigate whether 4-HPR can inhibit DENV-2 replication when added prior to infection or post infection (p.i.), 10 μM drug or DMSO (drug diluent) was added to Vero cells 2 h prior to infection, for 2 h during infection, 2 h p.i., or 24 h p.i. In each instance the drug was incubated with the cells for 2 h then removed. Infections were performed for 2 h (MOI of 1) followed by analysis of intracellular viral RNA by qRT-PCR 48 h p.i. Data shown are the mean+SD from one experiment, representative of three independent assays.

[2] = system: CHIKV; experiment: CHIKV infection of HEK293T cells, plaque assay; assay type: cell-based; conditions: 5 μM, 24 h p.i.
Experimental: HEK293T cells were treated with 5 μM 4-HPR or 4-MPR for 2 h, then infected with CHIKV for 1 h (MOI of 0.1) in the absence of compound (FIG. 9A). Alternatively, HEK293T cells were infected with CHIKV for 1 h (MOI of 0.1) without pre-treating the cells with compound (FIG. 9B). In both instances, virus inoculums were removed, then fresh medium containing the indicated compound was added (FIG. 9A and FIG. 9B). Infectious virus titres were determined by plaque assay 24 h p.i. Data are the mean+standard deviation of one experiment performed in duplicate wells, represented as plaque forming units per ml (PFU/ml).

[3] = system: PERK pathway; experiment: Activation of PERK pathway of the unfolded protein response in DENV-infected cells; assay type: cell-based
[4] = system: DENV-2; experiment: DENV-2 infectivity assay in Vero cells, viral RNA copies in culture medium by RT-PCR; assay type: cell-based; conditions: MOI of 1
Experimental: To test the specificity of 4-HPR and 4-oxo-4-HPR for anti-DENV activity Vero cells were infected with DENV-2 with a multiplicity of infection (MOI) of 1, in the presence of drug diluent (untreated) or the indicated compounds (10 μM in FIG. 3A, or 10 μM or 5 μM as indicated in FIG. 3B) for 2 h, followed by removal of the virus/drug inoculums, and addition of fresh 2% FCS maintenance medium. At 24 h post infection (p.i.) the culture medium was collected and the viral RNA extracted using QIAamp viral RNA mini kit (Qiagen). Absolute RNA copies present in each sample were determined by Taqman One Step RT-PCR (Applied Biosystems), as an estimate of virus titre by extrapolation from a standard curve generated from in vitro transcribed DENV RNA. Data shown are the mean+standard error of the mean (SEM) for 3 (FIG. 3A) or 2 (FIG. 3B) independent experiments. Statistical analysis (Student's ttest) was performed using GraphPad Prism software.

[5] = system: DENV-2; experiment: Cell-based flavivirus immunodetection assay in BHK-21 cells, DENV-2; conditions: Dengue virus, DENV2, BHK-21, 48 h, read-out: EC50, DENV-2 replication
Experimental: To investigate this, BHK-21 cells were infected with DENV serotypes 1, 2, 3 or 4 (MOI of 0.3) for 1 h in the presence of 4-HPR or 4-MPR (concentrations as indicated in FIG. 6A). Virus inoculum was removed and fresh media containing the indicated compounds was added. Virus infection rates were determined 48 h p.i. using a cell-based flavivirus immunodetection assay. Briefly, cells were fixed and stained for DENV structural protein, E, followed by addition of Alexa Fluor 488 anti-mouse IgG. Viral antigen quantification was performed using Imagexpress. Data shown are representative of a single experiment

[6] = system: DENV-2; experiment: Delayed addition in DENV-2 infected Huh-7 cells, viral titre by plaque assay; assay type: cell-based; conditions: 7.5 μM added 12 h p.i., at 60 h p.i.
Experimental: (§1) To gain further insight into the mode of action of 4-HPR, the human liver carcinoma cell line, Huh-7 cells were infected with DENV-2 (MOI of 1), followed by delayed addition of drug diluent DMSO (DENV only), 7.5 μM 4-HPR, 7.5 μM 4-MPR or 10 μM NITD008 (a previously described adenosine nucleoside inhibitor), 12 h post infection. Cells were lysed at the indicated times, RNA was extracted by Trizol and analysed by qPCR with fold change in expression of NS1 calculated relative to the untreated control (FIG. 5B). Concurrently, culture medium was collected and viral titres determined by plaque assay (FIG. 5C).

[7] = system: DENV-3; experiment: Plaque assay in Huh-7 cells, DENV-3; assay type: cell-based; conditions: Dengue virus, DENV3, Huh-7, 48 h, read-out: EC50, infectious virus titre DENV 3
Experimental: (§2) To ensure the antiviral activity of 4-HPR is not cell-line specific Huh-7 cells were also infected with DENV-1, 2, 3 or 4 (MOI of 0.3) in the presence of increasing concentrations of 4-HPR, with infectious virus titres determined by plaque assay at 48 h p.i.

[8] = system: DENV-2; experiment: Plaque assay in Huh-7 cells, DENV-2; assay type: cell-based; conditions: Dengue virus, DENV2, Huh-7, 48 h, read-out: EC50, infectious virus titre DENV 2
Experimental: as §2

[9] = system: DENV-1; experiment: ADE-mediated DENV-1 infection of THP-1 cells, plaque assay; assay type: cell-based; conditions: Dengue virus, DENV1, THP-1, 48 h, read-out: EC50, ADE-mediated DENV-1 infection
From the text: In a cell culture model of antibody-dependent enhanced (ADE) DENV infection, THP-1 human monocyte cells infected with DENV-1 in the presence of sub-neutralising levels of a humanized version of the 4G2 antibody, which is cross-reactive with flavivirus envelope proteins (Paradkar et al., 2010 Bio Sci Rep.), show increased virus production compared to cells infected with virus alone. This model mimics the ADE phenomenon thought to occur in patients infected with a second serotype of DENV, which is associated with more severe DENV disease.
Briefly, humanized 4G2 antibody (0.05 μg/ml) was combined with DENV-1 (MOI of 10), and 4-HPR (concentrations as indicated in FIG. 7) in serum-free media, and incubated on ice for 1 h for the immune complex to form. Immune complex inoculums were added to THP-1 cells and incubated for 48 h. Supernatants were collected after 2 days and infectious virus production was quantified by plaque assay.

[10] = system: DENV-2; experiment: Delayed addition in DENV-2 infected Huh-7 cells, NS1 RNA by qPCR; assay type: cell-based; conditions: 7.5 μM added 12 h p.i., at 24 h p.i.
Experimental: as §1

## CC1=C(/C=C/C(C)=C/C=C/C(C)=C/C(=O)Nc2ccc(O)cc2)C(C)(C)CCC1 [4-HPR, N-(4-hydroxyphenyl) retinamide]
[1]
  intracellular DENV-2 RNA copies 48 h p.i.: substantial reduction
[2]; HEK293T cells pre-treated 2 h with compound
  reduction of infectious CHIKV produced: ~100%
[2]; HEK293T cells, compound added after infection
  reduction of infectious CHIKV produced: ~95%
[3]
  activation of PERK pathway within the unfolded protein response: induces activation of the pro-apoptotic PERK pathway
[4]; 5 μM compound for 2 h during infection
  reduction in viral RNA copies at 24 h p.i.: ~1 log
[4]; 10 μM compound for 2 h during infection
  reduction in viral RNA copies at 24 h p.i.: 2 log
[5]
  EC50: 2240 nM
[6]
  virus titre lower than untreated and 4-MPR-treated controls: 3 logs
[7]
  EC50: 1400 nM
[8]
  EC50: 2100 nM
[9]
  EC50: 850 nM
[10]
  reduction in viral RNA levels (NS1 qPCR): 1 log
